Reference: ChEMBL document CHEMBL1201862, “PubChem BioAssay data set” (2004)
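How tested: cells in 96-well plates exposed to compound for 48 hours at five concentrations. GI50: concentration for 50% inhibition of growth.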 Activity calls are given as the source filed them. No stated cut-off is given here; in the data, active = GI50 up to about 1.1 µM and inactive = higher.

How the values were obtained:
Experiment in all cases: growth of human tumour cells (NCI), 48 h
[1] = tested on: 786-0
[2] = tested on: A498
[3] = tested on: A549
[4] = tested on: ACHN
[5] = tested on: BT-549
[6] = tested on: CAKI-1
[7] = tested on: CCRF-CEM
[8] = tested on: COLO 205
[9] = tested on: DU-145
[10] = tested on: EKVX
[11] = tested on: HCC 2998
[12] = tested on: HCT-116
[13] = tested on: HCT-15
[14] = tested on: HL-60
[15] = tested on: HOP-62
[16] = tested on: HOP-92
[17] = tested on: HT-29
[18] = tested on: Hs-578T
[19] = tested on: IGROV-1
[20] = tested on: K562
[21] = tested on: KM12
[22] = tested on: LOX IMVI
[23] = tested on: M14
[24] = tested on: MCF7
[25] = tested on: MDA-MB-231
[26] = tested on: MDA-MB-435
[27] = tested on: MDA-N
[28] = tested on: MOLT-4
[29] = tested on: Malme-3M
[30] = tested on: NCI-H226
[31] = tested on: NCI-H23
[32] = tested on: NCI-H460
[33] = tested on: NCI-H522
[34] = tested on: NCI/ADR-RES
[35] = tested on: OVCAR-3
[36] = tested on: OVCAR-4
[37] = tested on: OVCAR-5
[38] = tested on: OVCAR-8
[39] = tested on: PC-3
[40] = tested on: RPMI-8226
[41] = tested on: RXF 393
[42] = tested on: SF-268
[43] = tested on: SF-295
[44] = tested on: SF-539
[45] = tested on: SK-MEL-28
[46] = tested on: SK-MEL-2
[47] = tested on: SK-MEL-5
[48] = tested on: SK-OV-3
[49] = tested on: SN12C
[50] = tested on: SNB-19
[51] = tested on: SNB-75
[52] = tested on: SR
[53] = tested on: SW-620
[54] = tested on: T47D
[55] = tested on: TK-10
[56] = tested on: U-251
[57] = tested on: UACC-257
[58] = tested on: UACC-62
[59] = tested on: UO-31

SMILES: N#Cc1c(Cl)nc2ccccc2c1N=[N+]=[N-]
- GI50 [1]: 2800 nM (inactive)
- GI50 [2]: 21700 nM (inactive)
- GI50 [3]: 16600 nM (inactive)
- GI50 [4]: 2110 nM (inactive)
- GI50 [5]: 1800 nM (inactive)
- GI50 [6]: 1680 nM (inactive)
- GI50 [7]: 1410 nM (inactive)
- GI50 [8]: 1880 nM (inactive)
- GI50 [9]: 14900 nM (inactive)
- GI50 [10]: 2250 nM (inactive)
- GI50 [11]: 6120 nM (inactive)
- GI50 [12]: 1660 nM (inactive)
- GI50 [13]: 2020 nM
- GI50 [14]: 1800 nM (inactive)
- GI50 [15]: 17300 nM (inactive)
- GI50 [16]: 1700 nM (inactive)
- GI50 [17]: 1920 nM (inactive)
- GI50 [18]: 5810 nM (inactive)
- GI50 [19]: 1950 nM (inactive)
- GI50 [20]: 705 nM (active)
- GI50 [21]: 6400 nM (inactive)
- GI50 [22]: 1670 nM (inactive)
- GI50 [23]: 2840 nM (inactive)
- GI50 [24]: 4560 nM (inactive)
- GI50 [25]: 1890 nM (inactive)
- GI50 [26]: 7380 nM (inactive)
- GI50 [27]: 13300 nM (inactive)
- GI50 [28]: 1080 nM (active)
- GI50 [29]: 2180 nM (inactive)
- GI50 [30]: 12500 nM (inactive)
- GI50 [31]: 2520 nM (inactive)
- GI50 [32]: 5190 nM (inactive)
- GI50 [33]: 1990 nM (inactive)
- GI50 [34]: 9330 nM (inactive)
- GI50 [35]: 1780 nM (inactive)
- GI50 [36]: 1910 nM (inactive)
- GI50 [37]: 6610 nM (inactive)
- GI50 [38]: 3020 nM (inactive)
- GI50 [39]: 2650 nM (inactive)
- GI50 [40]: 2110 nM (inactive)
- GI50 [41]: 1440 nM (inactive)
- GI50 [42]: 3240 nM (inactive)
- GI50 [43]: 8550 nM (inactive)
- GI50 [44]: 2150 nM (inactive)
- GI50 [45]: 2950 nM (inactive)
- GI50 [46]: 1910 nM (inactive)
- GI50 [47]: 14200 nM (inactive)
- GI50 [48]: 15500 nM (inactive)
- GI50 [49]: 5140 nM (inactive)
- GI50 [50]: 14800 nM (inactive)
- GI50 [51]: 8670 nM (inactive)
- GI50 [52]: 875 nM (active)
- GI50 [53]: 1730 nM (inactive)
- GI50 [54]: 2470 nM (inactive)
- GI50 [55]: 4820 nM (inactive)
- GI50 [56]: 5190 nM (inactive)
- GI50 [57]: 12700 nM (inactive)
- GI50 [58]: 2630 nM (inactive)
- GI50 [59]: 4710 nM (inactive)

SMILES: CCCCCC1=C/C(=C\c2[nH]c(-c3ccc[nH]3)cc2OC)N=C1C
- GI50 [1]: < 10 nM (active)
- GI50 [2]: 98.9 nM (active)
- GI50 [3]: 16.7 nM (active)
- GI50 [4]: < 10 nM (active)
- GI50 [5]: 32.4 nM (active)
- GI50 [6]: < 10 nM (active)
- GI50 [7]: < 10 nM (active)
- GI50 [8]: < 10 nM (active)
- GI50 [9]: < 10 nM (active)
- GI50 [10]: 14.5 nM (active)
- GI50 [11]: 11.3 nM (active)
- GI50 [12]: < 10 nM (active)
- GI50 [13]: < 10 nM
- GI50 [14]: < 10 nM (active)
- GI50 [15]: 11.1 nM (active)
- GI50 [16]: < 10 nM (active)
- GI50 [17]: < 10 nM (active)
- GI50 [18]: < 10 nM (active)
- GI50 [19]: 17 nM (active)
- GI50 [20]: < 10 nM (active)
- GI50 [21]: < 10 nM (active)
- GI50 [22]: < 10 nM (active)
- GI50 [23]: < 10 nM (active)
- GI50 [24]: 13.6 nM (active)
- GI50 [25]: < 10 nM (active)
- GI50 [26]: < 10 nM (active)
- GI50 [27]: < 10 nM (active)
- GI50 [28]: < 10 nM (active)
- GI50 [29]: 44.8 nM (active)
- GI50 [30]: 12 nM (active)
- GI50 [31]: 12.8 nM (active)
- GI50 [32]: 12.4 nM (active)
- GI50 [33]: < 10 nM (active)
- GI50 [34]: < 10 nM (active)
- GI50 [35]: < 10 nM (active)
- GI50 [36]: < 10 nM (active)
- GI50 [37]: 17.9 nM (active)
- GI50 [38]: < 10 nM (active)
- GI50 [39]: < 10 nM (active)
- GI50 [40]: < 10 nM (active)
- GI50 [41]: 11.5 nM (active)
- GI50 [42]: < 10 nM (active)
- GI50 [43]: < 10 nM (active)
- GI50 [44]: 12.7 nM (active)
- GI50 [45]: 21.5 nM (active)
- GI50 [46]: < 10 nM (active)
- GI50 [47]: 31.6 nM (active)
- GI50 [48]: 250 nM (active)
- GI50 [49]: < 10 nM (active)
- GI50 [50]: 56.2 nM (active)
- GI50 [51]: < 10 nM (active)
- GI50 [52]: < 10 nM (active)
- GI50 [53]: < 10 nM (active)
- GI50 [54]: 18.9 nM (active)
- GI50 [55]: 32.9 nM (active)
- GI50 [56]: 12.2 nM (active)
- GI50 [57]: 68.4 nM (active)
- GI50 [58]: < 10 nM (active)
- GI50 [59]: 11 nM (active)
